Structures are written as SMILES.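 Assay format: 96-well plates, 48-hour exposure. GI50: concentration for 50% inhibition of growth. At the TGI there is no net growth.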 Some results are limits rather than exact numbers.

Common to all, as to assay: NCI anticancer screen, dose series, 48 h
Test [1] concerns NCI-H522 lung.
Test [2] deals with SK-MEL-5 melanoma.
The test system of test [3] is SN12C renal.
The subject of test [4] is U251 CNS.
Test [5] concerns SNB-19 CNS.
Test [6] has as its system SK-MEL-28 melanoma.
In test [7] the test system is CCRF-CEM leukemia.
The subject of test [8] is MALME-3M melanoma.
The subject of test [9] is SR leukemia.
Test [10] deals with HS 578T breast.

Take `CC1=C([Se]CC(OC(=O)[C@@H](CO)NC(=O)OC(C)(C)C)C(=O)NC(C)(C)C)C(=O)c2ccccc2C1=O` (stereo partly specified): the GI50 was 1.6 µM in [1]; 1.59 µM in test [2]; 1.85 µM in test [3]; 0.986 µM in [4]; 0.66 µM in test [5]; 2.06 µM in [6]. Besides, the GI50 in [7] was 0.525 µM; in [8] it was 2.04 µM. Besides, the TGI in [1] was found to be 3.14 µM; in test [2] it was 2.97 µM; in test [3], 3.41 µM; in [4], 2.56 µM; in [5], 2 µM; in test [6] it was 3.55 µM. Also, the TGI in test [7] was greater than 100 µM; in [8], 3.77 µM.

For the compound `C=C1Oc2nc3ccccc3c(=O)n2C1(C)C`, the TGI in [1], in [2], in [3], in test [4], in test [5] and in test [6] was greater than 100 µM in each case. The TGI in [7] and in test [8] was greater than 100 µM each time.

Turning to `CCc1c(Cl)nc(Cl)nc1Cl`, the TGI in test [9] was greater than 100 µM; in test [1] it was 0.113 µM; in [2] it was 1.39 µM; in test [3], 1.39 µM; in test [4] it was 0.92 µM; in [5] it was 8.79 µM. Besides, the TGI amounted to 5.54 µM in test [6] and 0.718 µM in test [8].

`CCOC(=O)C1=C(C)NC2SC(=O)/C(=C\c3ccccc3)N2C1c1ccccc1` (stereo unspecified): the GI50 in test [1] is greater than 100 µM; in test [2], 16.1 µM; in test [3] it was greater than 100 µM; in [4] it was greater than 100 µM; in test [5], greater than 100 µM; in test [10], greater than 100 µM. Besides, the GI50 in test [6] is greater than 100 µM; in test [7] it was 14.8 µM. Besides, the TGI in [1], in test [2], in [3], in [4], in test [5] and in test [10] was greater than 100 µM each time. Moreover, the TGI in test [6] and in test [7] was greater than 100 µM each time.

For `CN(C)CCN=Cc1c2ccccc2c(=O)n2c1oc1ccccc12`, the GI50 in test [9] was 3.7 µM; in test [1], 16.5 µM; in [2] it was 2.89 µM; in test [3] it was 3.81 µM; in [4] it was 7.4 µM; in test [5], 7.45 µM. In addition, the GI50 in test [6] was 10.5 µM; in [7], 4.36 µM. The TGI in test [9] is greater than 100 µM; in test [1], 38 µM; in [2], 16.1 µM; in test [3], 17.1 µM; in test [4], 21 µM; in test [5] it was 21.4 µM. The results for the TGI in test [6] and in test [7] were 23.1 µM and 62.8 µM, respectively.

For `CC1(C)CC2C=C(C=O)C3(C=O)CC3(C)C2C1` (stereo unspecified), the TGI was determined as 2.45 µM in test [9]; 2.51 µM in [1]; 3.51 µM in test [2]; 8.23 µM in test [3]; 6.45 µM in test [4]; 25.6 µM in test [5]. For the same compound, the figures for the TGI in test [6] and in test [7] were 4.19 µM and 1.15 µM, respectively.

As to `Cc1cc(NS(=O)(=O)c2ccc(NC(=O)c3cccc4c(Nc5ccc(S(=O)(=O)Nc6cc(C)on6)cc5)c5ccccc5nc34)cc2)no1`, the TGI in test [1] was 51.7 µM; in test [2], greater than 100 µM; in test [3] it was greater than 100 µM; in [4] it was 86.9 µM; in test [5] it was 88.7 µM; in test [6] it was greater than 100 µM. For the same compound, the TGI in test [7] and in test [8] was greater than 100 µM in each case.

Consider `N#CCC(=O)N/N=C1\C(=O)N(c2ccc(Cl)cc2)C(=O)C(=O)C1c1nc2ccccc2o1` (stereo unspecified), for which the TGI in test [9], in test [1], in test [2], in test [3], in test [4] and in test [5] was greater than 100 µM throughout. For the same compound, the TGI in test [6], in test [7] and in test [8] was greater than 100 µM throughout.

As for `O=C(O)CCC1(Br)CCCCC(Br)C1=O` (stereo unspecified), the TGI in test [1], in test [2], in test [3], in test [4], in [5] and in test [6] was greater than 100 µM in each case. Also, the TGI in test [7] and in test [8] was greater than 100 µM in each case.

In the case of `CC(C)(C)[Si](C)(C)O/N=C\c1ccc(O[Si](C)(C)C(C)(C)C)cc1`, the TGI in [2] was greater than 100 µM; in test [3] it was greater than 100 µM; in test [4] it was 61.7 µM; in [5], greater than 100 µM; in test [7], greater than 100 µM; in test [8] it was greater than 100 µM.

As to `O=C(O)C1CCCCN1C(=O)c1ccccc1` (stereo unspecified), the TGI in test [9], in [2], in test [3], in [4], in test [5] and in [6] was greater than 100 µM each time. Further, the TGI in test [7] and in [8] was greater than 100 µM each time.

`Clc1ccc(OC2CCO2)cc1Cl` (stereo unspecified): the TGI in test [1], in [2], in [3], in [4], in [5] and in [6] was greater than 100 µM throughout. In addition, the TGI in test [7] and in [8] was greater than 100 µM each time.

As for `CCN(CC)CCNC(=O)c1cccc2cc3ccccc3nc12`, the TGI in test [2] was 17.1 µM; in [3], 51.4 µM; in test [4], 81.5 µM; in test [5] it was 64.7 µM; in test [6] it was 23.1 µM; in test [7], 41.3 µM.

Take `CC[O-].Cc1ccc2cccc([O-])c2n1.Cc1ccc2cccc([O-])c2n1.Cc1ccc2cccc([O-])c2n1.[Ti+4]`: the GI50 in test [1] is 14 µM; in test [2], 22.6 µM; in test [3] it was 65.3 µM; in [4], 18.3 µM; in test [5] it was greater than 53.9 µM; in [6] it was greater than 65.2 µM. In addition, the figures for the GI50 in test [7] and in [8] were 6.97 µM and greater than 46 µM, respectively. Moreover, the TGI was 30.4 µM in test [1]; 52 µM in test [2]; greater than 100 µM in test [3]; 50.4 µM in test [4]; greater than 100 µM in test [5]; greater than 100 µM in [6]. Moreover, the TGI in test [7] is 38.8 µM; in [8], greater than 66.3 µM.

As to `CN1c2ccccc2S(=O)(=O)n2c(COc3ccc(Cl)cc3)nnc21`, the TGI in test [1], in test [2], in test [3], in test [4], in test [5] and in test [10] was greater than 100 µM throughout. For the same compound, the TGI in test [6] and in [7] was greater than 100 µM in each case.

For the compound `O=c1c2ccccc2c(=O)c2c1cc(Cl)c1[nH]c3c([nH]c12)c(Cl)cc1c(=O)c2ccccc2c(=O)c13`, the TGI in test [1], in [3], in test [4], in [5], in test [6] and in test [7] was greater than 100 µM throughout. In [8], the TGI was greater than 100 µM.

Turning to `C/C(=N/NC(=O)C(N)=O)C(CC(C(=O)Nc1ccccc1C)/C(C)=N\NC(=O)C(N)=O)C(=O)Nc1ccccc1C` (stereo unspecified), the TGI in [1], in test [2], in test [3], in test [4], in [5] and in test [6] was greater than 100 µM each time. Further, the TGI in [7] and in test [8] was greater than 100 µM in each case.

With `O=C(Nc1ccccc1Br)c1cccc([N+](=O)[O-])c1O`, the TGI is 33 µM in test [9]; 6.4 µM in [1]; 5.11 µM in test [2]; greater than 81.8 µM in [3]; 14.9 µM in test [4]; greater than 100 µM in [5]. Also, the TGI in test [6] is 59.9 µM; in test [7], greater than 40.3 µM; in test [8], 7.38 µM.

In the case of `O=C(O)C1c2ccccc2C(C(=O)O)c2ccccc21` (stereo unspecified), the TGI in test [9], in test [1], in test [2], in test [3], in test [4] and in [5] was greater than 100 µM in each case. Moreover, the TGI in [7] and in test [8] was greater than 100 µM in each case.

Consider `CCC[CH2][Sn]([CH2]CCC)([O]C(=O)c1nccnc1N)[O]C(=O)c1nccnc1N`, for which the GI50 in [9] was 0.294 µM; in [1], 0.052 µM; in test [2], 1.24 µM; in test [3], 0.791 µM; in test [4] it was 0.478 µM; in [5] it was 1.4 µM. For the same compound, the GI50 in [6] is 0.769 µM; in test [8], 0.57 µM. Moreover, the TGI in test [9] worked out at 2.35 µM; in [1], 0.18 µM; in [2] it was 2.49 µM; in test [3], 2.04 µM; in test [4], 1.65 µM; in test [5], 2.69 µM. The TGI in [6] and in test [8] was 2.04 µM in each case.

For the compound `COc1cc2cc[n+]3c4cc(OC)c(OC)cc4c(C)cc3c2cc1OC`, the TGI in test [9], in test [1], in test [2], in test [3], in [4] and in test [5] was greater than 100 µM each time. The TGI in test [6], in test [7] and in test [8] was greater than 100 µM each time.

As for `CN(c1ccccc1)C1C(=O)N(c2ccccc2)C1/C=C/c1ccccc1` (stereo unspecified), the TGI in [9], in [1], in [2], in test [3], in test [4] and in test [5] was greater than 100 µM each time. In addition, the TGI in test [6], in test [7] and in [8] was greater than 100 µM in each case.

Regarding `NCC1OC(OC2C(CO)OC(OC3C(O)C(N)CC(N)C3OC3OC(CO)C(O)C(O)C3N)C2O)C(N)C(O)C1O` (stereo unspecified), the GI50 in [1], in [4], in [5], in test [10] and in test [6] was greater than 50 µg/mL in each case. Further, the TGI in [1], in [4], in test [5], in test [10] and in test [6] was greater than 50 µg/mL in each case.

Regarding `Cc1cc(C(=O)N2CCN(Cc3ccccc3)CC2)c(C)o1`, the TGI in test [9], in test [1], in [2], in [3], in [4] and in test [5] was greater than 100 µM throughout. Also, the TGI in test [6] and in [7] was greater than 100 µM throughout.

For the compound `C[C@H]1CC(=O)C2=CCCC3(SCCCS3)[C@@H]2[C@H]1CO`, the TGI in [9], in test [1], in [2], in [3], in test [4] and in test [5] was greater than 100 µM throughout. The TGI in test [6], in test [7] and in [8] was greater than 100 µM each time.

Consider `CC1=C(c2cc(C(=O)Nc3ccc(Cl)c(Cl)c3)nc(N)n2)Sc2ccccc2N1`, for which the TGI in test [9], in test [1], in test [2], in test [3], in [4] and in test [5] was greater than 100 µM in each case. For the same compound, the TGI in test [6], in [7] and in test [8] was greater than 100 µM throughout.

Consider `O=C(O)C#CCO`, for which the TGI in test [1], in test [2], in test [3], in [4], in test [5] and in test [6] was greater than 100 µM each time. Moreover, the TGI in test [7] and in [8] was greater than 100 µM in each case.

Regarding `COC(=O)C1CCC(Nc2cccc(C(F)(F)F)c2)=N1` (stereo unspecified), the TGI in [1], in test [3], in [4], in [5], in test [6] and in test [7] was greater than 100 µM in each case. Moreover, the TGI in [8] was greater than 100 µM.

(Values after PubChem BioAssay (NCI).)
